# Assay results from PMC8032764 (Scientific Reports, 2021).
# Target: human GABAA α5β3γ2 (Homo sapiens, UniProt P18507+P31644)
# Experiment: Two-electrode voltage clamp in Xenopus oocytes, current induced by EC10 of GABA
# Type: cell-based
# Parameters: expressed in transfected cells; host or cells: Xenopus laevis oocytes, cRNA injection
# Description: Freshly prepared oocytes of maturation stage VI were bought from Ecocyte Bioscience (Castrop-Rauxel, Germany) and, after overnight delivery, plated into 96-well plates (Greiner no. 651101) for microinjection on a ROBOOCYTE R16 system (Multichannel Systems MCS GmbH, Reutlingen, Germany). Each oocyte was injected with roughly 50 nL of RNA solution. The solution for expressing receptors composed of the human α1, β2 and γ2 subunits contained 3 pg/nL of α1 and β2 RNA and 15 pg/nL of γ2 RNA. The solution for expressing human α2β3γ2 receptors contained 2.5 pg/nL of α2 and β3 RNA, 5 pg/nL of γ2 RNA and 10 pg/nL of GABARAP RNA. The solution for expressing human α3β3γ2 receptors contained 1.3 pg/nL of α3 and β3 RNA and 6.5 pg/nL of γ2 RNA. The solution for expressing human α5β3γ2 receptors contained 1.3 pg/nL of α5 and β3 RNA and 13 pg/nL of γ2 RNA. […] After the microinjection the oocytes were kept at 20 °C temperature until the electrophysiological experiment. Experiments were done 3 to 5 days later on the ROBOOCYTE instrument which employs the two-microelectrode voltage-clamp technique for membrane voltage control and current measurement. […] During current recording and compound testing the cell membrane was constantly clamped to − 80 mV. Current signals were recorded and stored on a PC-type computer using the ROBOOCYTE software.
# During the microinjection and up to the electrophysiological experiment the oocytes were kept in a solution containing 88 mM NaCl, 1 mM KCl, 2.5 mM NaHCO3, 10 mM HEPES (AppliChem GmbH, Darmstadt, Germany), 0.82 MgSO4, 0.33 mM Ca(NO3)2, 0.33 mM CaCl2, 100 U/mL penicillin (GIBCO, ThermoFisher Scientific) and 100 µg/mL streptomycine (GIBCO, ThermoFisher Scientific). The pH was adjusted to 7.5. During the experiment the voltage-clamped oocyte was constantly superfused by a solution containing 90 mM NaCl, 1 mM KCl, 5 mM HEPES (AppliChem), 1 mM MgCl2 and 1 mM CaCl2 (pH 7.4). GABA and test compounds were added to this solution. GABA concentrations were chosen according to previously determined concentration–response relations for the different human GABAA receptor subunit combinations. Concentrations evoking approximately 10% of a maximal response were selected, i.e., 8 µM for α1β2γ2, 6 µM for α2β3γ2, 10 µM for α3β3γ2 and 5 µM for α5β3γ2. Solutions containing GABA or test compounds were freshly prepared at least every second day. […] Compounds were further diluted in DMSO and finally in extracellular saline to reach a DMSO concentration of 0.1%. The same amount of DMSO was added to the control solutions without test compounds.
# During the experiment the solutions were fed into the well containing the voltage-clamped oocyte via Teflon tubings connected by electromagnetic valves which allowed rapid switching between different solutions (controlled by the ROBOCYTE software). Approximately 1–2 min after impaling an oocyte and switching to voltage-clamp mode GABA was applied for 90 s to record a control response. Thereafter the oocyte was washed with saline for 160 s followed by another 90 s GABA application. Then 30 s after the onset of the second GABA application the system switched to a solution containing GABA plus the test compound. Each oocyte was used for testing one concentration of a single test compound (for α5β3γ2: 1 nM: n = 8, 10 nM: n = 8, 100 nM: n = 7, 1000 nM: n = 7).
# In this case each GABA application lasted 110 s and the rest period between the two GABA applications was 190 s long.
# On each 96-well plate 3–6 oocytes were used for testing a known NAM at the BZD binding site, β-CCM (FG7106), as a positive control. […] Maximally effective concentrations of β-CCM were used for each subunit combination, i.e., 100 nM β-CCM for α1β2γ2, 300 nM for α2β3γ2 or α3β3γ2 and 1 µM for α5β3γ2.
# [1] = concentration–response curve, n = 7
# Sequence of human GABAA α5β3γ2 (P31644 32-462): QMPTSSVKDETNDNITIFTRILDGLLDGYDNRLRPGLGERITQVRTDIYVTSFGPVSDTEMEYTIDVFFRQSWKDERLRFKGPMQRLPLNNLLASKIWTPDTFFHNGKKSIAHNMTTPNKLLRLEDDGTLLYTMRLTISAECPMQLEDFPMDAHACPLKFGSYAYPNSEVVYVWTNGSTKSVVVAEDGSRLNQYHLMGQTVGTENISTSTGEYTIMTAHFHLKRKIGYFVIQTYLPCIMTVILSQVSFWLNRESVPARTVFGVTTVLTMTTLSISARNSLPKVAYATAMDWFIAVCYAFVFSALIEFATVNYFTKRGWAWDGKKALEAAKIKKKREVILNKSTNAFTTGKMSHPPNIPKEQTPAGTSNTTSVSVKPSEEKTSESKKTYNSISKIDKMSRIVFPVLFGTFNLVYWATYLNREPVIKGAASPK
# Sequence of human GABAA α5β3γ2 (P28472 26-473 partner): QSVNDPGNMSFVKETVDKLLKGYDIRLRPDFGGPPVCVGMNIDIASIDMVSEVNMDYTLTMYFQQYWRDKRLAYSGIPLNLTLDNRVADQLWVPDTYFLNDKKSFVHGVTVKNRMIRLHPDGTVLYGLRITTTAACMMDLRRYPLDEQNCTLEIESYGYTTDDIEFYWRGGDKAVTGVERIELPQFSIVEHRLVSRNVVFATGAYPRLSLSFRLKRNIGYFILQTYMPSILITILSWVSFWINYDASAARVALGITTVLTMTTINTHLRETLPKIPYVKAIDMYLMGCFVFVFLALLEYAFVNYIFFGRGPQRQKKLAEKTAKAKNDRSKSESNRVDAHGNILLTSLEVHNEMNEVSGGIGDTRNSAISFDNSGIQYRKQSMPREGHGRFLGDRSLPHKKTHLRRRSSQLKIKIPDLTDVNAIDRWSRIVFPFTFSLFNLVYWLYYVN
# Sequence of human GABAA α5β3γ2 (P18507 40-475): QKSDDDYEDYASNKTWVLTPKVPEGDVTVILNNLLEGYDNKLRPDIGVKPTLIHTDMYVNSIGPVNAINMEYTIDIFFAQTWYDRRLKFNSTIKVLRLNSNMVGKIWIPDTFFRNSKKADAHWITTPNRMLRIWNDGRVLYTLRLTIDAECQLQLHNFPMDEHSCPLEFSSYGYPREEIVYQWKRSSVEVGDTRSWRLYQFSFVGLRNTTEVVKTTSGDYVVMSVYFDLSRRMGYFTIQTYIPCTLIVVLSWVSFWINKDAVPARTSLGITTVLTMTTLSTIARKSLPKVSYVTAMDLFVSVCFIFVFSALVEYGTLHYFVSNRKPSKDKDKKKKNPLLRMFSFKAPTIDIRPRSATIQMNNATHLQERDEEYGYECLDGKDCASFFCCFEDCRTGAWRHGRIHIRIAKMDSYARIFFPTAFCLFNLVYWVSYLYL
compound,measurement,setting,value
Cc1onc(-c2ccc(F)cc2)c1COc1ccc(C(=O)N2CCS(=O)(=O)CC2)cn1 [basmisanil],decrease of GABA-induced current under co-treatment with flumazenil,100 nM basmisanil + flumazenil 30 or 1000 nM,blocked by co-treatment with flumazenil
same,reduction of the GABA-evoked current,"1 µM, highest concentration tested, 5 µM GABA",42 ± 1%
same,Hill slope,[1],0.9
same,IC50,[1],8 nM
